From patent publication US9796753B2, “N-substituted indenoisoquinolines and syntheses thereof” (Purdue Research Foundation, priority 2005, dated 2017) come the findings set out here.

Holding throughout (assay type): cell-based
For series [1], the system named is CNS SF-539. Briefly: COMPARE screening (NCI human cancer cell line screen), cytotoxicity GI50. Put shortly:
(§1)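 Cells of the NCI60 panel were exposed to compound at 100, 10, 1, 0.1 and 0.01 μM for 48 h, then stained with sulforhodamine B. Optical density relative to control was plotted as percentage growth versus log10 concentration.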

In series [2] the test system is colon HCT-116. The series is described as above. Put shortly:
as §1

For series [3], the system named is lung HOP-62. The series is described as above. Put shortly: as §1
The subject of series [4] is melanoma UACC-62. The description is as above. The procedure, abridged: as §1
For series [5], the system named is ovarian OVCAR-3. The series is described as above. Put shortly:
as §1

The test system of series [6] is prostate DU-145. The description is as above. The procedure, abridged:
as §1

Series [7] has as its system renal SN12C. Described as above. The procedure, abridged: as §1
Series [8] deals with breast MDA-MB-435. The series is described as above.
Method: COMPARE screening. The compounds described herein were examined for antiproliferative activity against the human cancer cell lines in the National Cancer Institute screen (COMPARE screening), in which the activity of each compound was evaluated with approximately 55 different cancer cell lines of diverse tumor origins. […] Therefore, the MGM value represents an overall assessment of toxicity of the compound across numerous cell lines.
The test system of series [9] is all human cancer cell lines successfully tested. Briefly: NCI screen mean graph midpoint (MGM) for growth inhibition. As to conditions: Table 1; average GI50 of all cell lines tested (approximately 55), test range 10^−8 to 10^−4 molar. Put shortly: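 NCI60 panel cells exposed to compound at 100, 10, 1, 0.1 and 0.01 μM for 48 h, then sulforhodamine B staining. Percentage growth versus control plotted against log concentration; MGM is the midpoint across all lines tested.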

The term GI50 denotes the concentration that inhibits growth by half. Lower therefore signals greater sensitivity of the cells.

Structures are written as SMILES.

On to `COc1cc2c3c(n(CCCn4ccnc4)c(=O)c2cc1OC)-c1ccccc1C3=O` [Compound 5e], for which the concentration for 50% growth inhibition (GI50) in [1] was < 10 nM; in series [2], 10 nM; in series [3], < 10 nM; in [4], < 10 nM; in [5] it was < 10 nM; in [6], < 10 nM. The GI50 in series [7] was < 10 nM; in series [8] it was 14 nM. In [9], this compound displayed an MGM (mean GI50 across cell lines) of 33 nM.

As to `Cl.NCCCn1c2c(c3ccccc3c1=O)C(=O)c1ccccc1-2` [Compound 5am], the 50% growth inhibitory concentration (GI50) in series [1] stood at 250 nM; in series [2], 180 nM; in series [3], 200 nM; in series [4] it was 260 nM; in series [5], 1380 nM; in [6] it was 220 nM. Moreover, the figures for the GI50 in [7] and in series [8] were 160 nM and 780 nM, respectively. For the same compound, the “MGM (mean graph midpoint for growth inhibition)” value in series [9] stood at 0.32 ± 0.23 µM.

As for `O=C1c2ccccc2-c2c1c1ccc([N+](=O)[O-])cc1c(=O)n2CCCn1ccnc1` [Compound 5f], the GI50 in series [1] is 16 nM; in series [2] it was 274 nM; in series [3], 190 nM; in series [4], 12 nM; in series [5], 864 nM; in [6] it was 17 nM. Moreover, the GI50 is 15 nM in series [7] and 2170 nM in series [8]. For the same compound, the “MGM (mean graph midpoint for growth inhibition)” value in series [9] was found to be 0.370 ± 0.28 µM.

As to `Cl.O=C1c2ccccc2-c2c1c1ccc([N+](=O)[O-])cc1c(=O)n2CCCNCCO` [Compound 5bl], the GI50 was > 100000 nM in series [1]; 27 nM in series [2]; 31 nM in [3]; 200 nM in [4]; 1350 nM in series [5]; > 100000 nM in series [6]. The GI50 in series [7] worked out at 229 nM; in series [8] it was 1070 nM. The “MGM (mean graph midpoint for growth inhibition)” value in [9] was found to be 0.296 ± 0.067 µM.

On to `COc1ccc2c(c1)C(=O)c1c-2n(CCCCl)c(=O)c2cc([N+](=O)[O-])ccc12` [Compound 5ba], for which the GI50 in series [1] was 27 nM; in series [2] it was 794 nM; in series [3], 295 nM; in series [4] it was < 10 nM; in series [5], 3390 nM; in series [6] it was 36 nM. In addition, the GI50 in series [7] is < 10 nM; in [8], 3240 nM. The “MGM (mean graph midpoint for growth inhibition)” value in series [9] is 0.178 ± 0.012 µM.

With `COc1cc2c3c(n(CCCn4cncn4)c(=O)c2cc1OC)-c1cc2c(cc1C3=O)OCO2.Cl` [Compound 5n, 6-{3-[2-(1,2,4)]-Triazolyl-1-propyl}-5,6-dihydro-2,3-dimethoxy-8,9-methylenedioxy-5,11-dioxo-11H-indeno[1,2-c]isoquinoline Hydrochloride], the GI50 in series [1] was 288 nM; in [2], 1910 nM; in [3], 79 nM; in series [4], < 10 nM; in [5], 61700 nM; in [6], 85 nM. For the same compound, the GI50 is 85 nM in series [7] and > 100000 nM in series [8]. In series [9], this compound showed an MGM (mean GI50 across cell lines) of 3550 nM.

Consider `Cl.NCCn1c2c(c3ccccc3c1=O)C(=O)c1ccccc1-2` [Compound 5al], for which the GI50 in series [1] came to 210 nM; in series [2], 270 nM; in series [3] it was 620 nM; in [4], 920 nM; in series [5], 710 nM; in [6], 760 nM. Also, the concentration for 50% growth inhibition (GI50) in [7] was 490 nM; in series [8], 920 nM. The “MGM (mean graph midpoint for growth inhibition)” value in series [9] was determined as 0.530 ± 0.320 µM.
